Test results taken from US20160220524A1, “COMPOSITIONS OF SMALL MOLECULE THERAPEUTICS” (NEXMED HOLDINGS, INC., priority 2015, published 2016).
Structures can show the parent of a compound that is named as a salt.

How the values were obtained:
[1] = Experimental: The compounds from BCS Class 2, 3 and 4 were each formulated at 5 mg/ml in a liquid carrier of either an aqueous solution of polyethylene glycol 400 (20% PEG 400), or an aqueous solution of DDAIP-HCL (20%). […] Cohorts of three animals per group were placed in the study. On day 1, animals from each group were dosed at 30 mg/kg (6 ml/kg) by oral gavage (PO). Animals were fed at the time of dosing. Serial blood samples were collected at pre-dose, and after post-dose intervals of 30 minutes, 1 hour, 2 hours and 4 hours. The blood samples were collected into lithium heparin-coated tubes. At each time point, 0.15 ml of blood was collected via left jugular vein cannulae and processed for collection of plasma by centrifuging at approximately 2,000 rpm for approximately 10 minutes. The cellular fraction of the blood was discarded. Collection times and volume of plasma samples were recorded and tabulated. Plasma samples were transferred into clean tubes and snap frozen onto dry ice. Samples were stored at −80° C. until ready for bio-analysis by LC/MS/MS. The drug concentration was measured from supernatant after centrifugation of the dosing solution
[2] = water; cited from earlier work
P-glycoprotein (P-gp) = P-glycoprotein (P-gp) (Homo sapiens, UniProt P08183); experiment: Inhibition of P-glycoprotein; type: in vitro ADME; details: up to 10 mM
Chain of P-glycoprotein (P-gp) (P08183 whole entry): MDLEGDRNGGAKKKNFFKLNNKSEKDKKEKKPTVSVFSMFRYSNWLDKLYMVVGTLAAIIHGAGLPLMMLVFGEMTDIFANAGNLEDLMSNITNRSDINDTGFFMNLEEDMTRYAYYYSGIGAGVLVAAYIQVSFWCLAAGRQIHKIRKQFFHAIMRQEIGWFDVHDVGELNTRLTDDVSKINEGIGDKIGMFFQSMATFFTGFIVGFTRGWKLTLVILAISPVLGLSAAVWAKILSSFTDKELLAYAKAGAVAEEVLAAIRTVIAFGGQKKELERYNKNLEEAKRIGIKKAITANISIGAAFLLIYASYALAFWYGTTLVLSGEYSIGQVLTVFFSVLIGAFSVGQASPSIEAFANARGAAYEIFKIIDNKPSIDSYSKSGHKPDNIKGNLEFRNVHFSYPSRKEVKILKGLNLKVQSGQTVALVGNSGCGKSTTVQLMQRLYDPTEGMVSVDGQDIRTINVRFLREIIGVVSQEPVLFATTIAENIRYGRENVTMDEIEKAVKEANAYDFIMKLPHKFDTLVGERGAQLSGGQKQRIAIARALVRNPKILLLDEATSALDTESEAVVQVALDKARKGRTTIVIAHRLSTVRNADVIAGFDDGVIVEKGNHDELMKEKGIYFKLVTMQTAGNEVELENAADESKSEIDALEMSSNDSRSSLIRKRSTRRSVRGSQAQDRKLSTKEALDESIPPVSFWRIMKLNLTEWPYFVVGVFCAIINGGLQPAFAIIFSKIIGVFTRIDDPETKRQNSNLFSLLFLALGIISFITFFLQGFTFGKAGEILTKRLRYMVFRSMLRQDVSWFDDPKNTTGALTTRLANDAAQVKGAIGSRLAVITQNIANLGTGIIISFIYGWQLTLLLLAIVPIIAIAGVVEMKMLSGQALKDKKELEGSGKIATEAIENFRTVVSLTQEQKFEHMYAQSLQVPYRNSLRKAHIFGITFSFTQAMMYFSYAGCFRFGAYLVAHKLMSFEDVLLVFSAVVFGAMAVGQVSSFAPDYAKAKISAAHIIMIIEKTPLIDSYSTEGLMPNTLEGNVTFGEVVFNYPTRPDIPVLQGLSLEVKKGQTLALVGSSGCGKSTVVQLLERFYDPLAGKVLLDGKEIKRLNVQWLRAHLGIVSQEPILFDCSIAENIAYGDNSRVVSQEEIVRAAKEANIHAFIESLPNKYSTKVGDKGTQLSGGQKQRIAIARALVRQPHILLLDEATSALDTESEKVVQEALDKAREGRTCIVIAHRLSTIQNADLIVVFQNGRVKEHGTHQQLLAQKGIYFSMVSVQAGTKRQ

Row | Compound | Sol. over PEG (solubility improvement fold over PEG 400) [1] [fold] | Sol. H2O (reported solubility from the literature) [2] [µg/mL] | inhibition of P-glycoprotein (P-gp) (P-glycoprotein (P-gp)) | form of the 5 mg/ml formulation (suspension or solution) [1]
1 | NS(=O)(=O)c1cc2c(cc1Cl)N=CNS2(=O)=O [Chlorothiazide, chlorothiazide] | >363 | 300 | – | –
2 | CCCCCCCCCCCCOC(=O)C(C)N(C)C (stereo not drawn) [DDAIP-HCL, dodecyl 2-(N,N-dimethylamino) propionate] | – | – | no inhibition | –
3 | N[C@H]1C(O)O[C@H](CO)[C@@H](O)[C@@H]1O (stereo partly drawn) [Glucosamine, glucosamine] | – | 551000 | – | –
4 | O=C(O)c1cc(/N=N/c2ccc(S(=O)(=O)Nc3ccccn3)cc2)ccc1O [Sulfasalazine, sulfasalazine] | >446 | 10 | – | suspensions
5 | O=C(CCCN1CCC(O)(c2ccc(Cl)cc2)CC1)c1ccc(F)cc1 [Haloperidol, haloperidol] | – | 1 | – | suspensions
